Assay results reported in publication doi:10.1101/2025.11.27.691040v1 (biorxiv, 2025).

Biological target: T1, AtCKA1 (Arabidopsis thaliana, UniProt Q08467)
T1 sequence (Q08467 76-409): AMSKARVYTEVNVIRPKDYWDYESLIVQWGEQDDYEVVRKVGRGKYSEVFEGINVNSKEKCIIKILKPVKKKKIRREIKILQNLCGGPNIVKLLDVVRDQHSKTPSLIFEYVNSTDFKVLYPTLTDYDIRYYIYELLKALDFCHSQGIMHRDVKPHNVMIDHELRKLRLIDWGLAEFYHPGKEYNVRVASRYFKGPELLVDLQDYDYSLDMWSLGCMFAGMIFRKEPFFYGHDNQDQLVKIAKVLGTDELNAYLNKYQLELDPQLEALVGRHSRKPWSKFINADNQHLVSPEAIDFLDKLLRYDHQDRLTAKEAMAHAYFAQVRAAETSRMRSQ
Experiment: biochemical

Kd: 2000 nM
Structure (SMILES): O=P(O)(O)O[C@H]1[C@H](OP(=O)(O)O)[C@@H](OP(=O)(O)O)[C@H](OP(=O)(O)O)[C@@H](OP(=O)(O)O)[C@H]1OP(=O)(O)O [InsP6]
